Laboratory results as given in ChEMBL document CHEMBL4706603, “Discovery of VEGFR-2 inhibitors exerting significant anticancer activity against CD44+ and CD133+ cancer stem cells (CSCs): Reversal of TGF-β induced epithelial-mesenchymal transition (EMT) in hepatocellular carcinoma” (Eur J Med Chem, 2020).
Activity calls are given as the source filed them. The rule behind the calls is not given here.

How the values were obtained:
[1] = tested on: HUVEC; test: Induction of apoptosis in human HUVEC assessed as late apoptotic cells at IC50 incubated for 48 hrs by annexin V-FITC and PI staining based flow cytometry; type: functional
[2] = Cmax in Wistar rat at 5 mg/kg, po measured upto 72 hrs by HPLC-MS analysis; type: ADME, organism-based; parameters: route oral, dose 5 mg/kg, time <=72; details: in vivo
[3] = Tmax in Wistar rat at 5 mg/kg, po measured upto 72 hrs by HPLC-MS analysis; type: ADME, organism-based; details: in vivo
[4] = tested on: HepG2; test: Induction of apoptosis in human HepG2 cells assessed as early apoptotic cells by measuring yellowish green coloured nucleus at IC50 incubated for 24 hrs by EtBr/AO staining based fluorescence microscopic analysis; type: functional, cell-based

## CC(=O)Nc1ccc(Oc2cccc3c(NC(=O)Nc4cccc(C(F)(F)F)c4)cccc23)cc1
[1]
  Activity: 6.09%
[2]
  Cmax: 39700 ng/mL
[3]
  Tmax: 6 h
[4]
  Activity: Active
